Bounds are passed on as bounds.

By IC50 is commonly meant the concentration at which inhibition is half-maximal. Low readings indicate greater potency in that assay, high ones weaker potency in that assay. By Ki is commonly meant a dissociation constant, usually derived from enzyme kinetics or from competition with a known ligand. One may read the EC50 as the midpoint of the concentration-response curve. A lower EC50 goes with higher potency in that assay.

The first experiment deals with T1, Progesterone receptor (Homo sapiens, UniProt P06401).
T1 sequence (P06401 whole entry): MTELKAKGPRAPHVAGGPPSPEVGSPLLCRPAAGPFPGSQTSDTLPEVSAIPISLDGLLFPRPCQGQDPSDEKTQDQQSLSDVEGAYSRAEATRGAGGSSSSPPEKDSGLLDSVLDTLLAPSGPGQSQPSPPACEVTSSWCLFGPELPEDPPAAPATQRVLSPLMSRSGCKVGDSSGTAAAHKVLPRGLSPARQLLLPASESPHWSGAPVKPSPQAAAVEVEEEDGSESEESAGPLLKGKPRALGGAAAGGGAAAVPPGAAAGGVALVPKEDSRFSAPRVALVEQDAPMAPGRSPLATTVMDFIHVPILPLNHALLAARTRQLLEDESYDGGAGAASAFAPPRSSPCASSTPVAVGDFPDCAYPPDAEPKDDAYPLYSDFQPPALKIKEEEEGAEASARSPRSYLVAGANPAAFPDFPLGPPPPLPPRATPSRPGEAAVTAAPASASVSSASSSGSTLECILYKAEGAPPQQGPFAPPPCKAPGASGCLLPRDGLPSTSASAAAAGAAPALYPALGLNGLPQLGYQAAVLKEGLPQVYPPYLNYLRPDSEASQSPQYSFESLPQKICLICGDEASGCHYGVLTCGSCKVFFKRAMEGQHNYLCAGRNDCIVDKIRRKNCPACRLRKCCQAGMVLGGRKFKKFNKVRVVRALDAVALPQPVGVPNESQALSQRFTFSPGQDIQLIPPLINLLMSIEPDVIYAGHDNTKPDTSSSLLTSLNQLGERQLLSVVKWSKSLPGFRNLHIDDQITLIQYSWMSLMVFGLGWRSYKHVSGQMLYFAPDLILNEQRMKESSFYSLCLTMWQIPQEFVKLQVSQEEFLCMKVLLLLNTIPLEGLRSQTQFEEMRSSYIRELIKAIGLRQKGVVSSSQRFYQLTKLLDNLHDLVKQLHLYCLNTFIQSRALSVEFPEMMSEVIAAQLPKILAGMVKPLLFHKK
The experiment can be described thus: (§1) Antagonistic activity against hPR in co-transfected CV-1 cell. In kind it is functional, cell-based.
On to `C[C@@H]1Cc2cc3c(C(F)(F)F)cc(O)nc3cc2N1`, for which the 50% inhibitory concentration (IC50) is 750 nM.
Regarding `C[C@@H]1c2cc3c(C(F)(F)F)cc(O)nc3cc2N[C@@H]1C`, the IC50 came out at 1900 nM.

Another experiment concerns the target T2, Glucocorticoid receptor (Homo sapiens) (UniProt P04150).
T2 sequence (whole entry): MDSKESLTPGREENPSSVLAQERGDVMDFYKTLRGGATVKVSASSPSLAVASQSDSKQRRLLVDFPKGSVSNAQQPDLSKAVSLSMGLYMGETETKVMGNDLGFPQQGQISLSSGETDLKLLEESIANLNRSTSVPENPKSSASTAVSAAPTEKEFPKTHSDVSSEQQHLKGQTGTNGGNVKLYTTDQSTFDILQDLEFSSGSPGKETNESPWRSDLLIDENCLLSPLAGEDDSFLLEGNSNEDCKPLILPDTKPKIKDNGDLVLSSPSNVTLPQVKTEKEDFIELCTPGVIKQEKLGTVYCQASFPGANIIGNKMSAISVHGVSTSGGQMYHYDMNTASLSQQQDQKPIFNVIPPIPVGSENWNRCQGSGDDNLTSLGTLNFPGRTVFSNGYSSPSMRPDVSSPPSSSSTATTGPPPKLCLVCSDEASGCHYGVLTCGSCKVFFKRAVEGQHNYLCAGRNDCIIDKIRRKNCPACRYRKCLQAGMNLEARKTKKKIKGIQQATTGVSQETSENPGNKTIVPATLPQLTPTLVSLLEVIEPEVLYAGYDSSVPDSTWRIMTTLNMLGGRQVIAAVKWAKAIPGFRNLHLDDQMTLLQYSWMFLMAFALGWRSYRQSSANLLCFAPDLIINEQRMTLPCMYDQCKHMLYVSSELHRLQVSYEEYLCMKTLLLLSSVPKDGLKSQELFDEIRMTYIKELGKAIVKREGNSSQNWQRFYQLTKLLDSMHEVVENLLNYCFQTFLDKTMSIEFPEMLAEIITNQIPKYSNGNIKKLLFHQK
The experiment can be described thus: (§2) Antagonistic activity against Glucocorticoid receptor in co-transfected CV-1 cell. In kind it is functional, cell-based.
`C[C@@H]1Cc2cc3c(C(F)(F)F)cc(O)nc3cc2N1` registered an Efficacy below 20%.
Turning to `C[C@@H]1c2cc3c(C(F)(F)F)cc(O)nc3cc2N[C@@H]1C`, the Efficacy was 35%.

The target of a further experiment is T3, Androgen receptor (Homo sapiens, UniProt P10275).
T3 sequence (P10275 whole entry): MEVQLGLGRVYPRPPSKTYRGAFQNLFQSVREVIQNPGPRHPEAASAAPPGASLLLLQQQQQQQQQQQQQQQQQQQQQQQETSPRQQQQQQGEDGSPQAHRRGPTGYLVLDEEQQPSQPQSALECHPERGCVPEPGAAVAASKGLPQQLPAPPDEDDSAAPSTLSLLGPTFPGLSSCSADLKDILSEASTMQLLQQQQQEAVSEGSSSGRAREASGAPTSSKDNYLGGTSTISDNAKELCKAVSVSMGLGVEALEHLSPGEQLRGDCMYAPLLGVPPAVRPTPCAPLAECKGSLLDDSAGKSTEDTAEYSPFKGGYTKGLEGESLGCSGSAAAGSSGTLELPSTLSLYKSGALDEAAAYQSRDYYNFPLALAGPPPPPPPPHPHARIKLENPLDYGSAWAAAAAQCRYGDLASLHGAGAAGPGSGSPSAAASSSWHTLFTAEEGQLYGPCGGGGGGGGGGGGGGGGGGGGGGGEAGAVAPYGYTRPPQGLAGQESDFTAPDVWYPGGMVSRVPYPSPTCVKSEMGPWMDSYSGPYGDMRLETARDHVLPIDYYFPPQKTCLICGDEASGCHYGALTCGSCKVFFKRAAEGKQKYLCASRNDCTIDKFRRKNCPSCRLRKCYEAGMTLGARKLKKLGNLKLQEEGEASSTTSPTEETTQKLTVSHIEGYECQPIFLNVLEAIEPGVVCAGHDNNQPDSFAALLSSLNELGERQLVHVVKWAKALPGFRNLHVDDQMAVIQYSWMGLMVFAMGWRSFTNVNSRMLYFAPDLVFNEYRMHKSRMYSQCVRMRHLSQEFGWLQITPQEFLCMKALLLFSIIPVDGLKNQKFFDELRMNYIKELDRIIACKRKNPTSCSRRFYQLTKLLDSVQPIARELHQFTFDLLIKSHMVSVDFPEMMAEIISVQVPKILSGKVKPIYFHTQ
Kind of experiment: Antagonistic activity (IC50) against human androgen receptor (hAR) in co-transfected CV-1 cell. In kind it is functional, cell-based.
For the molecule `C[C@@H]1c2cc3c(C(F)(F)F)cc(O)nc3cc2N[C@@H]1C`, the IC50 result is on record as “Not Active”.

Another experiment concerns the target T3, Androgen receptor.
Molecule `C[C@@H]1Cc2cc3c(C(F)(F)F)cc(O)nc3cc2N1` returned a concentration for half-maximal inhibition (IC50) of 7 nM.

The target in the next experiment is T4, Progesterone receptor (Homo sapiens) (UniProt P06401).
T4 sequence (whole entry): T1 sequence (P06401 whole entry)
Described as §1. The class given is functional, cell-based.
Molecule `C[C@@H]1Cc2cc3c(C(F)(F)F)cc(O)nc3cc2N1` had an Efficacy of 89%.
Take `C[C@@H]1c2cc3c(C(F)(F)F)cc(O)nc3cc2N[C@@H]1C`: the Efficacy was determined as 88%.

The target of another experiment is T3, Androgen receptor. Kind of experiment: Binding affinity against Androgen receptor transfected into COS cells.
On to `C[C@@H]1Cc2cc3c(C(F)(F)F)cc(O)nc3cc2N1`, for which the Ki is 10 nM.
Turning to `C[C@@H]1c2cc3c(C(F)(F)F)cc(O)nc3cc2N[C@@H]1C`, the affinity, expressed as Ki, was 6 nM.

The target in a further experiment is T5, Mineralocorticoid receptor (Homo sapiens, UniProt P08235).
T5 sequence (P08235 whole entry): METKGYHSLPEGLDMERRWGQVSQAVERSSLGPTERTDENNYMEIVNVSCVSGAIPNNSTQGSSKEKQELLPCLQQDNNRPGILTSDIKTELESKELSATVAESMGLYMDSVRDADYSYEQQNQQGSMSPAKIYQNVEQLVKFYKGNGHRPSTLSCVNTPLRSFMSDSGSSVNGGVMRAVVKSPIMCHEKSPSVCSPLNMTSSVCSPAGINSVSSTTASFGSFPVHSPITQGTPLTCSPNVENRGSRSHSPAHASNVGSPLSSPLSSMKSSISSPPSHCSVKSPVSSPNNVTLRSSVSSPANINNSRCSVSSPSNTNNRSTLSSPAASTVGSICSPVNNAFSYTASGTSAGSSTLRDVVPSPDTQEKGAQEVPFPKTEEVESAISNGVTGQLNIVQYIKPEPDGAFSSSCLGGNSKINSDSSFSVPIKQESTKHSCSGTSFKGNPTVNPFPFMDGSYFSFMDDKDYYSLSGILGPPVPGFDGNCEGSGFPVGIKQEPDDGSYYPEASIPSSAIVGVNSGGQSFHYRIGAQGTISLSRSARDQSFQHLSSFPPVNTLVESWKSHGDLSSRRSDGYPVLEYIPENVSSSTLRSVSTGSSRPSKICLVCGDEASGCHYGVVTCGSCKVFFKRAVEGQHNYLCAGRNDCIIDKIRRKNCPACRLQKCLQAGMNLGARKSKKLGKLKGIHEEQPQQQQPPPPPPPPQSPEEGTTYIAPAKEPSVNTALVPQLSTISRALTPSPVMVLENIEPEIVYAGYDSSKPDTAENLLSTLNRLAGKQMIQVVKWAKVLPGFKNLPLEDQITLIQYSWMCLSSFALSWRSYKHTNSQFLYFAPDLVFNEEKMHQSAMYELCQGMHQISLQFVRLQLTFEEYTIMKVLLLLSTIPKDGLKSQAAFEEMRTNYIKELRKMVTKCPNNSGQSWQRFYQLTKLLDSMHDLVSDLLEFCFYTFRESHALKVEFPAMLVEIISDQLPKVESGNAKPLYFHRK
The experiment can be described thus: (§3) Antagonistic activity against hMR in co-transfected CV-1 cell. The class given is functional, cell-based.
`C[C@@H]1Cc2cc3c(C(F)(F)F)cc(O)nc3cc2N1` yielded an IC50 above 10000 nM.
Consider `C[C@@H]1c2cc3c(C(F)(F)F)cc(O)nc3cc2N[C@@H]1C`, for which the half-maximal inhibitory concentration (IC50) was determined as 2000 nM.

In a further experiment the target is T6, Mineralocorticoid receptor (Homo sapiens) (UniProt P08235).
T6 sequence (whole entry): T5 sequence (P08235 whole entry)
The experiment is described as §3. In kind it is functional, cell-based.
Molecule `C[C@@H]1Cc2cc3c(C(F)(F)F)cc(O)nc3cc2N1` came in with an Efficacy below 20%.
In the case of `C[C@@H]1c2cc3c(C(F)(F)F)cc(O)nc3cc2N[C@@H]1C`, the Efficacy was 29%.

For a further experiment, the target named is T3, Androgen receptor. Kind of experiment: Agonistic activity (EC50) against human androgen receptor (hAR) in co-transfected CV-1 cell. In kind it is functional, cell-based.
Take `C[C@@H]1Cc2cc3c(C(F)(F)F)cc(O)nc3cc2N1`: the concentration giving a half-maximal response (EC50) worked out at 168 nM.
Same read-out and setting: the result for `C[C@@H]1c2cc3c(C(F)(F)F)cc(O)nc3cc2N[C@@H]1C` reads 5 nM.

Another experiment concerns the target T7, Glucocorticoid receptor (Homo sapiens, UniProt P04150).
T7 sequence (P04150 whole entry): T2 sequence (whole entry)
Described as §2. The class given is functional, cell-based.
Turning to `C[C@@H]1Cc2cc3c(C(F)(F)F)cc(O)nc3cc2N1`, the IC50 was above 10000 nM.
`C[C@@H]1c2cc3c(C(F)(F)F)cc(O)nc3cc2N[C@@H]1C` returned an IC50 of 2500 nM.

A further experiment has as its target T8, Estrogen receptor (Homo sapiens, UniProt Q92731+P03372). Kind of experiment: (§4) Antagonistic activity against Estrogen receptor in co-transfected CV-1 cell. In kind it is functional, cell-based.
In the case of `C[C@@H]1Cc2cc3c(C(F)(F)F)cc(O)nc3cc2N1`, the IC50 is given as above 10000 nM.
In turn, `C[C@@H]1c2cc3c(C(F)(F)F)cc(O)nc3cc2N[C@@H]1C` had an IC50 above 10000 nM.

The next experiment addresses T8, Estrogen receptor. The description is as §4. The class given is functional, cell-based.
On to `C[C@@H]1Cc2cc3c(C(F)(F)F)cc(O)nc3cc2N1`, for which the Efficacy was below 20%.
In turn, `C[C@@H]1c2cc3c(C(F)(F)F)cc(O)nc3cc2N[C@@H]1C` had an Efficacy below 20%.

The values above are taken from ChEMBL document CHEMBL1130772, “New nonsteroidal androgen receptor modulators based on 4-(trifluoromethyl)-2(1H)-pyrrolidino[3,2-g] quinolinone” (Bioorg Med Chem Lett, 1998).
